Test results from PMC4186434, “Antagonism of human CC-chemokine receptor 4 can be achieved through three distinct binding sites on the receptor” (Pharmacology Research & Perspectives, 2013).

Biological target: T1, human CC-chemokine receptor 4 (CCR4); CHO-CCR4 membranes (Homo sapiens, UniProt P51679)
T1 construct: membranes
T1 sequence (P51679 1-360): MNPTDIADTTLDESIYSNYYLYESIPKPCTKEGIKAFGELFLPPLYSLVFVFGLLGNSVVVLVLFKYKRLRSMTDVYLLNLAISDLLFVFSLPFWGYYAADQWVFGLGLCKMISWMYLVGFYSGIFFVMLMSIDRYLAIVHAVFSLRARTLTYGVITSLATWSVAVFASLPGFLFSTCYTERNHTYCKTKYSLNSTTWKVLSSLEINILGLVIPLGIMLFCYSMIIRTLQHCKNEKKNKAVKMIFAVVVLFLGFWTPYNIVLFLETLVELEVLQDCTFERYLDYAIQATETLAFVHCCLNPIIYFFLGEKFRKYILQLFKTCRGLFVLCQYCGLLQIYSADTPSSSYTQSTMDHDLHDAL
Assay: […]CCL17 displacement, scintillation proximity assay, CHO-CCR4 membranes
Type: binding
Conditions: read-out: [^125I]CCL17 / pKi (converted)

c1ccc2c(Nc3nc(CN(CC4CCCCC4)CC4CCCCC4)cs3)cccc2c1 [compound 1]
Ki: 457 nM

COc1cccc2c1c(NS(=O)(=O)c1ccc(Cl)s1)nn2Cc1cccc(CNC(=O)OC(C)(C)C)c1 [compound 2]
Ki: 18.2 nM

COc1cccc2c1c(NS(=O)(=O)c1ccc(Cl)s1)nn2Cc1cccc(CNC(=O)C(C)(C)O)c1 [compound 3]
Ki: 6.17 nM

O=C([C@H]1CCCCN1)N1CCN(c2nccc(NCc3ccc(Cl)cc3Cl)n2)CC1 [compound 4]
Ki: 2.75 nM

COc1cc2nc(N3CCC(N(C)C(=O)[C@H]4CCCN4)CC3)nc(Nc3ccc(Cl)cc3F)c2cc1OC [compound 6]
Ki: 2 nM

COc1nc(Br)cnc1NS(=O)(=O)c1ccc(Cl)s1 [compound 7]
Ki: 29.5 nM
